In US12685735B2 (Foghorn Therapeutics Inc., priority 2020, dated 2026):

Legend:
BRM = BRM (Homo sapiens, UniProt P51531); test: ATPase catalytic activity assay of BRM (ADP-Glo); format: biochemical; settings: for IC50: read-out: BRM IC50 (μM)*
In short: (§1)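 ATPase activity of BRG-1 or BRM was read by ADP-Glo. Residual ATP was depleted (40 min, room temperature), then ADP was converted to ATP (60 min, room temperature) and measured as luciferase luminescence.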

BRG-1 = BRG-1 (Homo sapiens, UniProt P51532); test: ATPase catalytic activity assay of BRG-1 (ADP-Glo); format: biochemical; settings: ATPase catalytic activity, ADP-Glo; for IC50: read-out: BRG1 IC50 (μM)*; for Emax: read-out: BRG1 Max % Inhibition
In short: as §1

BRG-1, sequence (P51532 whole entry): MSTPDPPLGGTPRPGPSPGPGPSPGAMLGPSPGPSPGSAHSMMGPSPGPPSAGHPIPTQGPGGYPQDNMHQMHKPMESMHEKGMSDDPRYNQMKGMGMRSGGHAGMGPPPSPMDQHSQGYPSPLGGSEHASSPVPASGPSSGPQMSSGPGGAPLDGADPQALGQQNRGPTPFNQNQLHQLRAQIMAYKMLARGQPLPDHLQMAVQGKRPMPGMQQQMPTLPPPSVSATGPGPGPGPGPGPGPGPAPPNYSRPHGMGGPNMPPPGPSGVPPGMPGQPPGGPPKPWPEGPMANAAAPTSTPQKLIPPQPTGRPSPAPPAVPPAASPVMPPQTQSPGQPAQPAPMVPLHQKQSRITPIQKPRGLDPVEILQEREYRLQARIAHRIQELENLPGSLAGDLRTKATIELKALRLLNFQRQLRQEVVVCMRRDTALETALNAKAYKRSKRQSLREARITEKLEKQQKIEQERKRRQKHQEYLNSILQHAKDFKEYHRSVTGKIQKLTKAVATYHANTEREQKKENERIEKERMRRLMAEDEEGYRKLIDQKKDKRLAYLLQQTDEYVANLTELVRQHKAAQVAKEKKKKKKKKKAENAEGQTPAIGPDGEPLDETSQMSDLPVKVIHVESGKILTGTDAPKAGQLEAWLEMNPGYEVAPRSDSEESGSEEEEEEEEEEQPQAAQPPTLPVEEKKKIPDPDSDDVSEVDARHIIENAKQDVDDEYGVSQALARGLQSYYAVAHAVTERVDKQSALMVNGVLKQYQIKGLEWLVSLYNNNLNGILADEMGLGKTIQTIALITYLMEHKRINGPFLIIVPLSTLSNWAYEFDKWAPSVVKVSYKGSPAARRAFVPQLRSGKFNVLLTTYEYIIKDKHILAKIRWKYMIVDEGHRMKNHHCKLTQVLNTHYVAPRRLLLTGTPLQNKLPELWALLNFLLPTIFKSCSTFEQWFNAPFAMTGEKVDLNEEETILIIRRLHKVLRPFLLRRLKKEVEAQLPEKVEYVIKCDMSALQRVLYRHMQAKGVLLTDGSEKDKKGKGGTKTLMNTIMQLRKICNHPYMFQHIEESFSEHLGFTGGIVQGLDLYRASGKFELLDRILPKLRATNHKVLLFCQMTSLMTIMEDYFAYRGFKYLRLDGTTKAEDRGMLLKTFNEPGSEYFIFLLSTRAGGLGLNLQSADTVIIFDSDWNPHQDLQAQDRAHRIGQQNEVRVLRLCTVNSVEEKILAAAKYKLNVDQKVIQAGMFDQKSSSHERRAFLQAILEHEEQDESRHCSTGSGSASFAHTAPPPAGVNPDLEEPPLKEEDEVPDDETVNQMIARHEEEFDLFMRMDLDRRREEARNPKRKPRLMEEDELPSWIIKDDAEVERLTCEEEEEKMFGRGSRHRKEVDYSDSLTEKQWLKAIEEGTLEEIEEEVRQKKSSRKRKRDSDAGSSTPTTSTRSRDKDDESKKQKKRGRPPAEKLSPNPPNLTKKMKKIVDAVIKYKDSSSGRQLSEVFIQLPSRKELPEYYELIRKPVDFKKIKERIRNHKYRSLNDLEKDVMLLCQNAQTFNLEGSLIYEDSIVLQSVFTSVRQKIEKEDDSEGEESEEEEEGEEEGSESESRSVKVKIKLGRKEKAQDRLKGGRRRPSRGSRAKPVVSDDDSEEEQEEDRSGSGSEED
BRM, sequence (P51531 whole entry): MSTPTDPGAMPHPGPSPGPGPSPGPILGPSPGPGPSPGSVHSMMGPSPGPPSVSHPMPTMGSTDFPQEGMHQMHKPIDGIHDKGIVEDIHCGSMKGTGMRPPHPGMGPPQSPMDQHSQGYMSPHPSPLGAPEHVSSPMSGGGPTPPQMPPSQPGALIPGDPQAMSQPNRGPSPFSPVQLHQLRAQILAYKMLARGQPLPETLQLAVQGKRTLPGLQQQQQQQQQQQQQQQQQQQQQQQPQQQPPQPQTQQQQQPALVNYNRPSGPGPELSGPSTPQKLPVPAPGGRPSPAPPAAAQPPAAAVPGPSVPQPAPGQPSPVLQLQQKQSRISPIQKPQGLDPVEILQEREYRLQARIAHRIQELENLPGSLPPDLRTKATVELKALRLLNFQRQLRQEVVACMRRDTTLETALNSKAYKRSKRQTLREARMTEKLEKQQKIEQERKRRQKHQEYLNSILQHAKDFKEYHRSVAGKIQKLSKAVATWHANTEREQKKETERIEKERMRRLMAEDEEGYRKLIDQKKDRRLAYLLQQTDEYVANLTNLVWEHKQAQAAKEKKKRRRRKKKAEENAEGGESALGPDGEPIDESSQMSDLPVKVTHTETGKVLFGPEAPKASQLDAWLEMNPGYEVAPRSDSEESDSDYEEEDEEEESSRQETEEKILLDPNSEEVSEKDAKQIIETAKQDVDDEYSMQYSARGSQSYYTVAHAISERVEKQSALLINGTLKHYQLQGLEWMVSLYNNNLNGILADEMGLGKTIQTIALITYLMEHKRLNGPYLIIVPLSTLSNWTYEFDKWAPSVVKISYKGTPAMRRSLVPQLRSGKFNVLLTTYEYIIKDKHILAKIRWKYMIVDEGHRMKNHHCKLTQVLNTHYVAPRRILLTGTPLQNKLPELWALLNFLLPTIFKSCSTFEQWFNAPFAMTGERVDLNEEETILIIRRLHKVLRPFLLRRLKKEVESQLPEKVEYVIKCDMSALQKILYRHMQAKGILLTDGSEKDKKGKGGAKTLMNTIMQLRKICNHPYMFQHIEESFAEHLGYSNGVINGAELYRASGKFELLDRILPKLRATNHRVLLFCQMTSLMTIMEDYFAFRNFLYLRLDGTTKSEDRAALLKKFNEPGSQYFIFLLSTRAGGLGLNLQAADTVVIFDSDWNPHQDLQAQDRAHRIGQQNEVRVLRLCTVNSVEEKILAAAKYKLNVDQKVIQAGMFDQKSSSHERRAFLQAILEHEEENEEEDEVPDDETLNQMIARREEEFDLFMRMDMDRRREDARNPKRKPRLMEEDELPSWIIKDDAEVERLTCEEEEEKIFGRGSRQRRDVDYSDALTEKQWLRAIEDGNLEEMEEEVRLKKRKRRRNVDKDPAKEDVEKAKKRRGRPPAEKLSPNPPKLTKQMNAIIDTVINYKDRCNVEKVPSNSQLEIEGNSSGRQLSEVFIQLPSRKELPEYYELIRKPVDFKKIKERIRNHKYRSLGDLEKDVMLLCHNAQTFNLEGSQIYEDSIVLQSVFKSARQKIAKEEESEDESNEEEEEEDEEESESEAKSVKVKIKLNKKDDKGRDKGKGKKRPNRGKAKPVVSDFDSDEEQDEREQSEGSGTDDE

BRM Max % Inhibition (BRM) | IC50 (BRM) | IC50 (BRG-1) | Emax (BRG-1) | BRG1 Max % Inhibition (BRG-1) | SMILES
>95% | < 0.1 µM | 0.1 to 1 µM | > 95% | – | C[C@@]1(C#N)COCc2ccc(C(=O)NCC(=O)Nc3nc(-c4cccc(N5CC(F)(F)C5)c4)cs3)cc21 [Compound 342, (R)-4-cyano-N-(2-((4-(3-(3,3-difluoroazetidin-1-yl)phenyl)thiazol-2-yl)amino)-2-oxoethyl)-4-methylisochromane-6-carboxamide]
>95% | 0.1 to 1 µM | 0.1 to 1 µM | > 95% | – | O=C(CNC(=O)c1cccc(C2(C(F)F)COC2)c1)Nc1nc(-c2cccc(C(F)F)c2)cs1 [Compound 344, 3-(3-(difluoromethyl)oxetan-3-yl)-N-(2-((4-(3-(difluoromethyl)phenyl)thiazol-2-yl)amino)-2-oxoethyl)benzamide]
>95% | < 0.1 µM | 1 to 5 µM | > 95% | – | C[C@@H]1CN(c2cccc(-c3csc(NC(=O)CNC(=O)c4cccc(C5(C(F)F)CCOC5)c4)n3)c2)C[C@H](C)O1 (stereo partly drawn) [Compound 345, 3-(3-(difluoromethyl)tetrahydrofuran-3-yl)-N-(2-((4-(3-((cis)-2,6-dimethylmorpholino)phenyl)thiazol-2-yl)amino)-2-oxoethyl)benzamide]
>95% | < 0.1 µM | 0.1 to 1 µM | > 95% | – | CC1COCc2ccc(C(=O)NCC(=O)Nc3nc(-c4cccc(N5C[C@@H](C)O[C@@H](C)C5)n4)cs3)cc21 (stereo partly drawn) [Compound 346, N-(2-((4-(6-((cis)-2,6-dimethylmorpholino)pyridin-2-yl)thiazol-2-yl)amino)-2-oxoethyl)-4-methylisochromane-6-carboxamide]
>95% | < 0.1 µM | < 0.1 µM | > 95% | – | C[C@@H]1CN(c2cc(-c3csc(NC(=O)CNC(=O)c4ccc5c(c4)[C@](C)(C#N)COC5)n3)ccn2)C[C@H](C)O1 [Compound 347, (R)-4-cyano-N-(2-((4-(2-((cis)-2,6-dimethylmorpholino)pyridin-4-yl)thiazol-2-yl)amino)-2-oxoethyl)-4-methylisochromane-6-carboxamide]
>95% | < 0.1 µM | 0.1 to 1 µM | > 95% | – | C[C@@]1(C#N)COCc2ccc(C(=O)NCC(=O)Nc3nc(-c4cccc(N5CC6(CCO6)C5)c4)cs3)cc21 [Compound 348, (R)-N-(2-((4-(3-(1-oxa-6-azaspiro[3.3]heptan-6-yl)phenyl)thiazol-2-yl)amino)-2-oxoethyl)-4-cyano-4-methylisochromane-6-carboxamide]
>95% | < 0.1 µM | 0.1 to 1 µM | > 95% | – | C[C@@H]1CN(c2cccc(-c3csc(NC(=O)CNC(=O)c4ccc5c(c4)[C@]4(CCO4)COC5)n3)n2)C[C@H](C)O1 [Compound 349, (R)-N-(2-((4-(6-((cis)-2,6-dimethylmorpholino)pyridin-2-yl)thiazol-2-yl)amino)-2-oxoethyl)spiro[isochromane-4,2′-oxetane]-6-carboxamide]
>95% | < 0.1 µM | 1 to 5 µM | > 95% | – | C[C@@H]1CN(c2cccc(-c3csc(NC(=O)CNC(=O)c4ccc5c(c4)[C@@]4(CCO4)COC5)n3)n2)C[C@H](C)O1 [Compound 350, (S)-N-(2-((4-(6-((cis)-2,6-dimethylmorpholino)pyridin-2-yl)thiazol-2-yl)amino)-2-oxoethyl)spiro[isochromane-4,2′-oxetane]-6-carboxamide]
>95% | < 0.1 µM | < 0.1 µM | > 95% | – | CC1CCN1c1cccc(-c2csc(NC(=O)CNC(=O)c3ccc4c(c3)[C@](C)(C#N)COC4)n2)c1 (stereo partly drawn) [Compound 351, (4R)-4-cyano-4-methyl-N-(2-((4-(3-(2-methylazetidin-1-yl)phenyl)thiazol-2-yl)amino)-2-oxoethyl)isochromane-6-carboxamide]
>95% | < 0.1 µM | < 0.1 µM | > 95% | – | C[C@@]1(C#N)COCc2ccc(C(=O)NCC(=O)Nc3nc(-c4cc(F)c5c(c4)CCO5)cs3)cc21 [Compound 352, (R)-4-cyano-N-(2-((4-(7-fluoro-2,3-dihydrobenzofuran-5-yl)thiazol-2-yl)amino)-2-oxoethyl)-4-methylisochromane-6-carboxamide]
>95% | < 0.1 µM | < 0.1 µM | > 95% | – | C[C@@]1(C#N)COCc2ccc(C(=O)NCC(=O)Nc3nc(-c4cc(F)c5c(c4)OCC5)cs3)cc21 [Compound 353, (R)-4-cyano-N-(2-((4-(4-fluoro-2,3-dihydrobenzofuran-6-yl)thiazol-2-yl)amino)-2-oxoethyl)-4-methylisochromane-6-carboxamide]
>95% | < 0.1 µM | 0.1 to 1 µM | > 95% | – | COC(=O)N1CCC[C@@H](c2csc(NC(=O)CNC(=O)c3ccc4c(c3)[C@](C)(C#N)COC4)n2)C1 [Compound 355, methyl (R)-3-(2-(2-((R)-4-cyano-4-methylisochromane-6-carboxamido)acetamido)thiazol-4-yl)piperidine-1-carboxylate]
>95% | < 0.1 µM | 0.1 to 1 µM | > 95% | – | CC1(F)COCc2ccc(C(=O)NCC(=O)Nc3nc(-c4cccc(N5CCC5)c4)cs3)cc21 (stereo not shown) [Compound 356, N-(2-((4-(3-(azetidin-1-yl)phenyl)thiazol-2-yl)amino)-2-oxoethyl)-4-fluoro-4-methylisochromane-6-carboxamide]
>90% | 0.1 to 1 µM | 0.1 to 1 µM | > 90% | – | C[C@@H]1CN(c2cccc(-c3csc(NC(=O)CNC(=O)c4cccc([C@]5(F)C[C@@H](F)C5)c4)n3)n2)C[C@H](C)O1 [Compound 357, 3-((1S,3S)-1,3-difluorocyclobutyl)-N-(2-((4-(6-((cis)-2,6-dimethylmorpholino)pyridin-2-yl)thiazol-2-yl)amino)-2-oxoethyl)benzamide]
>95% | < 0.1 µM | 0.1 to 1 µM | > 95% | – | C[C@@H]1CN(c2cccc(-c3csc(NC(=O)CNC(=O)c4cccc([C@]5(F)C[C@H](F)C5)c4)n3)n2)C[C@H](C)O1 [Compound 358, 3-((1R,3R)-1,3-difluorocyclobutyl)-N-(2-((4-(6-((cis)-2,6-dimethylmorpholino)pyridin-2-yl)thiazol-2-yl)amino)-2-oxoethyl)benzamide]
>95% | < 0.1 µM | 0.1 to 1 µM | > 95% | – | C[C@@]1(C#N)COCc2ccc(C(=O)NCC(=O)Nc3nc(-c4cccc([C@H]5CCO5)c4)cs3)cc21 [Compound 359, (R)-4-cyano-4-methyl-N-(2-((4-(3-((trans)-oxetan-2-yl)phenyl)thiazol-2-yl)amino)-2-oxoethyl)isochromane-6-carboxamide]
– | < 0.1 µM | 1 to 5 µM | > 95% | – | C[C@@H]1CN(c2cccc(-c3csc(NC(=O)CNC(=O)c4ccc5c(c4)C4(CCO5)CCO4)n3)n2)C[C@H](C)O1 (stereo partly shown) [Compound 360]
>90% | < 0.1 µM | 0.1 to 1 µM | > 90% | – | O=C(CNC(=O)c1cccc(C2(C(F)F)COC2)c1)Nc1nc(-c2cccc(N3CCC3)c2)cs1 [Compound 362, N-(2-((4-(3-(azetidin-1-yl)phenyl)thiazol-2-yl)amino)-2-oxoethyl)-3-(3-(difluoromethyl)oxetan-3-yl)benzamide]
>95% | < 0.1 µM | < 0.1 µM | > 95% | – | C[C@@]1(C#N)COCc2ccc(C(=O)NCC(=O)Nc3nc(-c4cc(F)cc(N5CCC5)c4)cs3)cc21 [Compound 364, (R)-N-(2-((4-(3-(azetidin-1-yl)-5-fluorophenyl)thiazol-2-yl)amino)-2-oxoethyl)-4-cyano-4-methylisochromane-6-carboxamide]
>95% | < 0.1 µM | 0.1 to 1 µM | – | >95% | C[C@@]1(C#N)COCc2ccc(C(=O)NCC(=O)Nc3nc(-c4cccc(C5CCO5)c4)cs3)cc21 (stereo partly shown) [Compound 365]
>85% | < 0.1 µM | 0.1 to 1 µM | > 85% | – | C[C@@H]1CN(c2cccc(-c3csc(NC(=O)CNC(=O)c4ccc5c(c4)CCOC5)n3)n2)C[C@H](C)O1 [Compound 366, N-(2-((4-(6-((cis)-2,6-dimethylmorpholino)pyridin-2-yl)thiazol-2-yl)amino)-2-oxoethyl)isochromane-6-carboxamide]
>85% | 0.1 to 1 µM | 1 to 5 µM | > 85% | – | CCS1(=O)=NCc2ccc(C(=O)NCC(=O)Nc3nc(-c4cccc(N5C[C@@H](C)O[C@@H](C)C5)c4)cs3)cc21 (stereo partly drawn) [Compound 367, N-(2-((4-(3-((cis)-2,6-dimethylmorpholino)phenyl)thiazol-2-yl)amino)-2-oxoethyl)-1-ethyl-3H-1I4-benzo[d]isothiazole-6-carboxamide 1-oxide]
>85% | 0.1 to 1 µM | 1 to 5 µM | > 85% | – | C[C@@H]1CN(c2cccc(-c3csc(NC(=O)CNC(=O)c4ccc5c(c4)[C@@](C)(C#N)CN5C)n3)c2)C[C@H](C)O1 [Compound 368, (R)-3-cyano-N-(2-((4-(3-((cis)-2,6-dimethylmorpholino)phenyl)thiazol-2-yl)amino)-2-oxoethyl)-1,3-dimethylindoline-5-carboxamide]
